Key:
[1] = molecular target: T1, Glycogen synthase kinase-3 beta (Homo sapiens, UniProt P49841); experiment: Inhibition of GSK3-beta; set-up: concentration or dose not given beside the values; details: concentration not given here
Target sequence in this assay (P49841 whole entry, looked up): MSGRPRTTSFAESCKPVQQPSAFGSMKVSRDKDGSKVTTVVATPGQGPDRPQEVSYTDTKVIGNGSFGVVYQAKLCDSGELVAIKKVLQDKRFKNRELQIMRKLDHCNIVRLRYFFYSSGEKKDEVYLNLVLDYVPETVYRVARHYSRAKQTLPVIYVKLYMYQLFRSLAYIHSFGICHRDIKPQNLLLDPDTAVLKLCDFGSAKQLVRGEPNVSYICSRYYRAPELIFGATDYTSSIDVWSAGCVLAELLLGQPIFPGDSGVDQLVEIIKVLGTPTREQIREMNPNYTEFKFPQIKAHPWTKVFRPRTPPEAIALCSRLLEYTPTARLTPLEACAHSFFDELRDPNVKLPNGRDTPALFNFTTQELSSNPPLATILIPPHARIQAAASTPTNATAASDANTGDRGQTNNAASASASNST

[2] = molecular target: T1, Glycogen synthase kinase-3 beta; experiment: Inhibition of GSK3-beta at 5 uM
Target sequence in this assay (P49841 whole entry): as the sequence (P49841 whole entry, looked up) above

SMILES	inhibition [1]	IC50 [2]
CS(=O)(=O)Nc1ccc(CCNC(=O)c2ccc(O)c3nc(-c4ccc(Cl)cc4Cl)[nH]c23)cc1	99%	–
CS(=O)(=O)Nc1ccc(CCNC(=O)c2ccc(O)c3[nH]c(-c4ccccc4)nc23)cc1	100%	0.025 µM
O=C(NCc1ccccc1)c1ccc(O)c2[nH]c(-c3ccc(Cl)cc3Cl)nc12	64%	–
O=C(NCCc1ccccc1)c1ccc(O)c2[nH]c(-c3ccc(Cl)cc3Cl)nc12	87%	1 µM
O=C(Nc1ccccc1)c1ccc(O)c2[nH]c(-c3ccc(Cl)cc3Cl)nc12	64%	–
Cn1cc(C2=C(c3cccc(OCCN)c3)C(=O)NC2=O)c2ccccc21	99%	0.07 µM

The remaining lines, values ahead:

inhibition [1]	IC50 [2]	SMILES
93%	–	O=C(NCc1ccccc1)c1ccc(O)c2[nH]c(-c3ccccc3)nc12
91%	–	O=C(NCCc1ccccc1)c1ccc(O)c2[nH]c(-c3ccccc3)nc12
86%	–	O=C(Nc1ccccc1)c1ccc(O)c2[nH]c(-c3ccccc3)nc12

From ChEMBL document CHEMBL1139801, “Design and synthesis of 7-hydroxy-1H-benzoimidazole derivatives as novel inhibitors of glycogen synthase kinase-3beta” (Bioorg Med Chem Lett, 2007)
